Data on one compound can be found in patent US9290473B2, “Inhibitors of phosphatidylinositol-3-kinase (PI3) and inducers of nitric oxide (NO)” (COUCIL OF SCIENTIFIC & INDUSTRIAL RESEARCH, priority 2009, dated 2016).

By IC50 is commonly meant the concentration that inhibits the measured activity by half.

Molecules are shown by their SMILES. Like-named read-outs stand apart in the source and are kept apart here.

A short description of data set [1]: Sensitivity to spontaneous autooxidation (H2O2 level, TMB reagent). As to conditions: 30 µM, 30 min and 2 hr in medium alone, with and without Catalase; H2O2 in supernatant. The class given is physicochemical. As for the experimental part: Spontaneous autooxidation of compounds having phenolic groups produce reactive oxygen species like H2O2. The enzyme Catalase breaks down H2O2 to water, We therefore incubated Compound 1 and 7 (30 µM each) for 30 min and 2 hr in medium alone in the presence and absence of Catalase. Level of H2O2 in the supernatant was then measured as reported using 3,5,3′,5′-tetramethylbenzidine (TMB) reagent (Plant Physiology, 2004, 136, 3114-3123). FIG. 1 represents the data of sensitivity of spontaneous autooxidation of Compound 1 and Compound 7.

Data set [2] concerns breast cancer cell line MCF-7. The experiment in a line: Cell viability, trypan blue exclusion, MCF-7. Type of data set: cell-based, human. The note with it: 72 hours incubation. From the text:
(§1) Following cancer cell lines were used: chronic myeloid leukemia cell lines K562, KU812; acute myeloid leukemia cell lines HL60, U937; T-lymphoblastic leukemia cell line Molt-4; prostate cancer cell line PC-3; breast cancer cell line MCF-7; pancreatic cancer cell line MIA PaCa-2. These cancer cell lines were maintained in tissue culture in standard growth medium containing 10% heat-inactivated fetal bovine serum (FBS). Normal human peripheral blood mononuclear cells (PBMC) were separated from whole blood by Ficoll/Hypaque density gradient centrifugation. Peripheral blood samples were collected from normal donors with due approval from the Human Ethics Committee of Indian Institute of Chemical Biology, Kolkata, India, and all experiments with human blood were conducted under an approved institutional Human Ethics committee protocol. Informed consent was provided according to the Declaration of Helsinki. Cancer cell lines and PBMC (5×10^3) in triplicate were incubated in 0.2 mL of standard growth medium containing 10% FBS with varying concentrations of test compounds of the present invention. After 72 hours of incubation, cells were collected by centrifugation (at 1000 g for 5 minutes) and cell-viability was determined by the trypan blue exclusion assay. At least 200 cells were examined in each sample. Because of monolayer culture, treated and untreated PC-3, MCF-7 and MIA PaCa-2 cells were detached from the wells by treatment with Cell Dissociation Solution (Sigma Chemical, St. Louis, Mo.) before counting. Data are represented as IC50 (minimum concentration required to inhibit the viability by 50%) in Table 5.

The test system of data set [3] is T-lymphoblastic leukemia cell line Molt-4. The experiment in a line: Cell viability, trypan blue exclusion, Molt-4. The class given is cell-based, human. The note with it: 72 hours incubation.
Description: as §1

Data set [4] relates to acute myeloid leukemia cell line HL60. Description: Cell viability, trypan blue exclusion, HL-60. Type of data set: cell-based. As to conditions: Homo sapiens.
Description: as §1

Data set [5] deals with endothelial nitric oxide synthase (eNOS). Description: NOS isoform siRNA transfection of MIA PaCa 2 cells, apoptosis and eNOS expression. Type of data set: cell-based, human. As to conditions: siRNA 48 hr, then 30 μM for 24 hr. The procedure: MIA PaCa 2 cells were transfected with control siRNA, nNOS siRNA, iNOS siRNA or eNOS siRNA (purchased from Santa Cruz Biotechnology) for 48 hr. Transfections were carried out following the manufacturer's instructions. The transfection reagent used for siRNA transfection was purchased from Santa Cruz. Cells were then treated with vehicle control or Compound 1 (30 μM) for 24 hr. Apoptosis was analyzed by flow cytometry. To confirm that transfectin with siRNAs attenuate the protein expression of respective NOS isoforms, Western blot was performed with whole cell lysates.

The next data set relates to U937 cells. Description: Morphology and apoptosis/necrosis in U937 cells (Giemsa; annexin V-FITC/PI flow cytometry). The note with it: 24 hours. The class given is cell-based, human. As for the experimental part: U937 cells were treated with standard growth medium alone or with standard growth medium containing hydroxychavicol (30 μM) for 24 hours. Treated and untreated cells were stained with Giemsa and viewed under microscope (magnification ×1000). For measurement of apoptosis/necrosis, cells were left untreated or treated with Compound No. 1 (30 μM) or Compound No.7 (15 μM) for 24 hours. After washing, cells were stained with fluorescein isothiocyanate (FITC)-conjugated annexin V and propidium iodide (PI) and analysed in a flow cytometer (BD LSR, Becton Dickinson).
FIG. 2B indicates flow cytometric determination of apoptosis and necrosis by Compound No.1 (hydroxychavicol) and Compound No.7. Apoptosis and necrosis of U937 cells were induced. Cells were left untreated (extreme left panel), or incubated with Compound No.1 (30 μM) (middle panel) or Compound No.7 (extreme right panel) (15 μM) for 24 hours and processed for flow cytometry after staining with annexin V-FITC and propidium iodide (PI). Viable cells are in the lower left quadrant (stained neither by annexin V nor by PI), early apoptotic cells (stained by annexin V only) are in the lower right quadrant, late-stage apoptotic cells (stained by both annexin V and PI) are in the upper right quadrant and the necrotic cells (stained by PI only) are in the upper left quadrant.
In general terms: A flow cytometer gives signals particle by particle.

In data set [6] the test system is chronic myeloid leukemia cell line K562. The experiment in a line: Cell viability, trypan blue exclusion, K562. Type of data set: cell-based. As to conditions: Homo sapiens.
Description: as §1

Data set [7] deals with prostate cancer cell line PC-3. The experiment in a line: Cell viability, trypan blue exclusion, PC-3. The class given is cell-based, human. As to conditions: 72 hours incubation.
Description: as §1

Data set [8] relates to Ehrlich ascites carcinoma (EAC). The experiment in a line: Ehrlich ascites carcinoma (EAC) model in vivo. As to conditions: 30 mg/kg body weight intraperitoneally thrice a week for three weeks, Swiss albino mice. From the text: The in vitro studies indicate that hydroxychavicol and other compounds of the present invention induce killing of a variety of cancer cell lines including breast cancer cell line MCF-7 (Table 5). The MCF-7 cell line is of epithelial origin. Studies were extended in vivo in mouse model for a tumor of epithelial origin. Ehrlich ascites carcinoma is a tumor of epithelial origin (Cancer Research, 1958, 18, 1167-1185). EAC was established in Swiss albino mice as described (Biochemical and Biophysical Research Communications, 2001, 288, 658-665). Swiss albino mice were injected with EAC (2×10^6 cells/mouse) intraperitoneally. 2 days post-injection of tumor cells, these mice (5 per group) were injected intraperitoneally with Compound No. 1 (hydroxychavicol) (30 mg/kg body weight) or Compound No. 7 (30 mg/kg body weight) thrice a week for three weeks. One week after the last injection, mice were sacrificed, and viable cells from peritoneal cavity were counted microscopically. Vehicle (dimethyl sulphoxide [DMSO], 0.1%) was used as control.

For data set [9], the system named is chronic myeloid leukemia cell line KU812. The experiment in a line: Cell viability, trypan blue exclusion, KU812. The class given is cell-based. As to conditions: Homo sapiens, 72 hours incubation.
Description: as §1

The next data set deals with PI3/Akt pathway. The experiment in a line: Activation of PI3/Akt pathway in MIA PaCa 2 cells (Western blot of Akt phosphorylation). The class given is cell-based, human. As to conditions: 30 μM, 24 hr, reversed by cPTIO 25 μM. The procedure: MIA PaCa 2 cells were pretreated with NAC (5 mM), cPTIO (25 μM), PI3K inhibitor LY294002 (10 μM) for 3 hr followed by treatment with Compound 1 (30 μM) for 24 hr. Whole cell lysates were prepared and the phosphorylation status and protein expression of Akt were analyzed by Western blot. Cells were also treated with medium alone, Compound 1 (30 μM), c-PTIO (nitric oxide scavenger; 25 μM) or compound 1 plus c-PTIO for 24 hr.
Background: In western blotting, separated proteins are transferred to a membrane and probed.

Consider `C=CCc1ccc(O)c(O)c1` [Compound 1, 4-allyl-benzene-1,2-diol], for which the “Sensitivity to spontaneous autooxidation” value in data set [1] is recorded as “undergoes spontaneous autooxidation”. For the same compound, the IC50 is 35 µM in [2]; 25 to 70 µM in data set [2] (Homo sapiens, MCF7, 72 h); 30 µM in data set [3]; 15 to 50 µM in data set [3] (Homo sapiens, MOLT-4, 72 h); 25 µM in data set [4] (72 hours incubation, trypan blue exclusion, read-out: Activity (IC50) HL-60); 13 to 60 µM in [4] (range over both cell lines HL60 and U937 and over the listed compounds, read-out: IC50 against acute myeloid leukemia cancer cell line (HL60, U937)). For the same compound, the half-maximal inhibitory concentration (IC50) is 20 µM in data set [6] (K562, 72 hours incubation, trypan blue exclusion, read-out: Activity (IC50) K562); 13 to 52 µM in data set [6] (read-out: IC50 against chronic myeloid leukemia cancer cell lines (K562), range over both cell lines K562, KU812 and KU812 and over the listed compounds, read-out: IC50 against chronic myeloid leukemia cancer cell lines (K562, KU812)); 35 µM in data set [7]; 25 to 70 µM in [7] (Homo sapiens, 72 h); 25 µM in data set [9]. In addition, the “NOS isoform involved in induced nitric oxide production and cell death” value in [5] was “Endothelial nitric oxide synthase (eNOS) is responsible”. The “Morphology of U937 cells (mode of killing)” value with U937 cells (30 μM, Giemsa staining, microscopy) was “due to both apoptosis and necrosis”. Also, in the data set on U937 cells (Compound No.1 30 μM, Compound No.7 15 μM, annexin V-FITC/PI), the “Apoptosis and necrosis of U937 cells by flow cytometry” value was “induce apoptosis and necrosis”. Besides, in data set [8], the “In vivo efficacy against EAC tumor (viable cells from peritoneal cavity)” value is reported as “effective in vivo in destroying EAC tumor”. Besides, the “Effect on activation of PI3/Akt pathway” value in the data set on PI3/Akt pathway was “inhibitis the activation of PI3/Akt pathway”.
